Data: US12336986B2, “Treatment and prevention of ocular neurodegenerative disorder” (The Jackson Laboratory, priority 2015, dated 2025)
Entries after “also recorded” stand apart in the source; their conditions may differ.

Assays:
[1] = tested on: retinal ganglion cells (RGCs); assay: RGC soma loss (RBPMS staining) in D2 glaucoma; assay type: in vivo, mouse; settings: D2 mice; NAM 550 mg/kg/day or pyruvate 500 mg/kg/day
Experimental: (§1) For immunofluorescence staining, mice were euthanized by cervical dislocation, their eyes enucleated and placed in 4% PFA ON. Retinas were dissected and flat-mounted onto slides, permeabilized with 0.1% Triton-X for 15 mins, blocked with 2% BSA in PBS and stained ON at RT in primary antibody (see below for list of antibodies).
(§2) After primary antibody incubation, retinas were washed 5 times in PBS, stained for 4 hrs at RT with secondary antibody. Slides were then washed a further 5 times with PBS, stained with DAPI for 15 mins, mounted with fluoromount, coverslipped and sealed with nail-polish.
(§3) For retinal sections, eyes were cryoprotected in 30% sucrose ON, frozen in OCT and cryosectioned at 18 μm. Slides were warmed to room temperature and the procedure above was followed. Retinas were imaged on a Zeiss AxioObserver for low resolution counts. Retinal sections were imaged on a Leica SP8 far higher resolution images.

SNAP-25 = assay: Synapse loss (SNAP-25 staining) in D2 retinas; assay type: in vivo, mouse; settings: D2 mice, NAM 550 mg/kg/day
Experimental: as §1, §2, §3

[2] = tested on: retinal ganglion cells (RGCs); assay: RNA-sequencing of FAC sorted RGCs, differential gene expression; assay type: in vivo, mouse; settings: for RGC gene expression changes (RNA-seq): D2 mice, NAM 550 mg/kg/day in drinking water from 6-month, 9-month RGCs
Experimental: Prior to cell collection, all surfaces and volumes were cleaned with 70% ethanol and RNaseZap (ThermoFisher Scientific) solution followed by dH2O. Mice were euthanized, eyes enucleated and placed immediately into ice-cold HBSS. Retinas were dissected from the eyes (4- or 9-month of age, no axon degeneration confirmed by PPD staining, data not shown) in HBSS on ice and placed directly into 100 μL, of a custom HBSS (Gibco), dispase (5 U/mL) (Stemcell Technologies), DNase 1 (2000 U/mL) (Worthington Biochemical) and SUPERase (1 U/μL) (ThermoFisher Scientific) solution. All retinas were from eyes that had no glaucomatous axon degeneration by PPD staining and analysis (see optic nerve assessment below). Retinas were incubated for 20 mins at 37° C. and shaken at 350 RPM in an Eppendorf Thermomixer R followed by gentle trituration using a 200 μL pipette. Samples were blocked in 2% BSA, SUPERase (1 U/μL) in HBSS, and stained with conjugated antibodies against Cd11b, Cd11c, Cd34, Cd45.2, GFAP, Thy1.2 as well as DAPI. This cocktail allowed other retina cell types to be accurately removed during FACS.
FACS was performed on a FACSAria (BD Biosciences). Thy1.2^+ (and negative for all other markers) RGCs were sorted into 300 μL buffer RLT+1% β-ME, vortexed and frozen at −80° C. until further processing.
[…] RGC samples were defrosted on ice and homogenized by syringe in RLT Buffer (total volume 300 μL). Total RNA was isolated using RNeasy micro kits according to manufacturer's protocols (Qiagen) including the optional DNase treatment step, and quality was assessed using an Agilent 2100 Bioanalyzer. The concentration was determined using Ribogreen Assay (Invitrogen). […]
Library size produced was analyzed using qPCR using the Library Quantitation kit/Illumina GA/ABI Prism (Kapa Biosystems). Libraries were barcoded, pooled, and sequenced 6 samples per lane on a HiSeq 2500 sequencer (illumina) giving a depth of 30-35 million reads per sample.
Samples were subjected to quality control analysis by a custom quality control python script. Reads with 70% of their bases having a base quality score ≥30 were retained for further analysis. Read alignment was performed using TopHat v 2.0.7 (Kim et al., Genome Biol 14, R36, 2013) and expression estimation was performed using HTSeq (Anders et al., Bioinformatics 31, 166-169, 2015) with supplied annotations and default parameters against the DBA/2J mouse genome (build-mm10). […]
Differential gene expression analysis between groups was performed using edgeR v 3.10.5 (Robinson et al., Bioinformatics 26, 139-140, 2010) following, batch correction using RUVSeq, the removal of outlier samples and lowly expressed genes by removing genes with less than five reads in more than two samples. […]

[3] = tested on: ganglion cell layer cells (GCL cells); assay: Whole retina explant culture (axotomy culture model), DAPI nuclei; assay type: cell-based, mouse
Excerpt: Mice were euthanized, eyes enucleated and placed immediately into ice-cold HBSS. Retinas were dissected from the eyes in HBSS on ice, flat-mounted with the ganglion cell layer up on a cell culture insert (Millipore), and submerged in tissue culture media containing Neurobasal-A, 1% penicillin-streptomycin (10000 U/mL), 1% glutamine (100×), 1% N-2 (100×) and 1% B-27 (50×) (all ThermoFisher Scientific).
For drug treated retinas tissue culture media was made as above and supplemented with one of the following compounds (all Sigma unless otherwise): β-NAD, NAM (PanReac AppliChem), β-NMN. Retinas were incubated in 6-well plates at 37° C. and 4% CO2 for 5 days before being fixed in 4% PFA and stained with DAPI. (For untreated “Day 0” controls, retinas were dissected and placed straight into 4% PFA.) Retinas were imaged on a Zeiss AxioObserver.

RGCs = settings: U.S. Pat. No. 7,776,326; injected intravitreally; cited from earlier work
dorsal root ganglion = settings: U.S. Pat. No. 7,776,326; cited from earlier work
PARP = PARP activation (pan-PARP immunostaining) in D2 retinas; assay type: in vivo, mouse; settings: NAM 550 mg/kg/day
Experimental: as §1, §2, §3

HIF-1α = HIF-1α induction (immunostaining, RNA-seq) in D2 retinas; assay type: in vivo, mouse; settings: D2 mice, early glaucoma, NAM 550 mg/kg/day
Experimental: as §1, §2, §3

[4] = RGCs, q<0.05, NAM 550 mg/kg/day
[5] = axotomized retinas in culture, 5 days

NC(=O)c1cccnc1 [NAM, nicotinamide]
RGC soma loss (RBPMS) [1]: prevented; also recorded: protects from RGC soma loss; also recorded: prevent RGC soma loss | synapse loss in early glaucoma (SNAP-25 staining) (SNAP-25): protected against early synapse loss; also recorded: prevents synapse loss | RGC gene expression changes (RNA-seq) [2]: prevented even the earliest molecular signs of glaucoma in the majority of treated eyes; also recorded: prevented the vast majority of age-related gene expression changes; also recorded: returned to normal; also recorded: molecularly similar to controls; also recorded: molecularly similar to both young and age-matched no glaucoma control RCGs; also recorded: prevents transcriptome imbalances and OXPHOS imbalances; also recorded: prevents age- and disease-related gene expression changes | RGC gene expression changes (RNA-seq) ([2]; listed as nicotinamide): more closely molecularly matched to young control mice | number of DE genes, 4-month D2-Gpnmb+ vs. NAM [2, 4]: 83 | number of DE genes, 9-month D2-Gpnmb+ vs. NAM [2, 4]: 4437 | nuclear diameter shrinkage (DAPI-labeled nuclei) ([3]; axotomized D2 retinas in culture, 5 days post-axotomy, NAM 100 mM and 500 mM): most robust protection against nuclear shrinkage; also recorded: protects against cell shrinkage; also recorded: indistinguishable from uninjured, baseline controls | ganglion cell layer cell death / cell density [3, 5]: attractive dose-response effect | protective effect in retina tissue culture [3, 5]: robustly protected | axon degeneration in RGCs after intravitreal injection (RGCs): not protective against axon degeneration in RGCs; also recorded: did not show any difference from the control animals | axonal degeneration after axotomy (dorsal root ganglion): did not work to diminish axonal degeneration | PARP activation / expression (PARP): decreased PARP activation; also recorded: prevents PARP activation | HIF-1α upregulation / transcriptional induction (HIF-1α): limited; also recorded: lessens upregulation
